Measured values: ChEMBL document CHEMBL5365481, “Design, Synthesis, and Activity Evaluation of Novel Dual-Target Inhibitors with Antifungal and Immunoregulatory Properties” (J Med Chem, 2023)
The source made the active and inactive calls. No cut-off for these calls is given here.

Key:
[1] = tested on: Candida albicans; assay: In vivo antifungal activity against Candida albicans ATCC SC5314 infected in BALB/c mouse assessed as decrease in COX2 expression level at 10 ug, ip for 14 days in presence of Biphenyl isopropyl ester by immunohistochemical analysis; type: functional, organism-based; settings: dose 10.0 µg, time 14.0 day
[2] = Toxicity in BALB/c mouse infected with Candida albicans ATCC SC5314 assessed as plasma AST level at 10 ug, ip for 14 days in presence of Biphenyl isopropyl ester; type: organism-based; settings: in vivo, 336 h, dose 10 µg, time 14 day
[3] = tested on: Candida albicans; assay: In vivo antifungal activity against Candida albicans ATCC SC5314 infected in BALB/c mouse assessed as increase in body weight at 10 ug, ip for 14 days in presence of Biphenyl isopropyl ester; type: functional, organism-based; settings: dose 10.0 µg, time 14.0 day
[4] = Toxicity in BALB/c mouse infected with Candida albicans ATCC SC5314 assessed as plasma BUN level at 10 ug, ip for 14 days in presence of Biphenyl isopropyl ester; type: organism-based; settings: in vivo, 336 h, dose 10 µg, time 14 day
[5] = tested on: Candida albicans; assay: In vivo antifungal activity against Candida albicans ATCC SC5314 infected in BALB/c mouse assessed as disappearance of nuclei aggregation at 10 ug, ip for 14 days in presence of Biphenyl isopropyl ester by GMS staining based microscopy; type: functional, organism-based; settings: dose 10.0 µg, time 14.0 day
[6] = Toxicity in BALB/c mouse infected with Candida albicans ATCC SC5314 assessed as morphological changes in lung at 10 ug, ip for 14 days in presence of Biphenyl isopropyl ester by H and E staining based microscopy; type: organism-based; settings: in vivo, 336 h, dose 10 µg, time 14 day
[7] = tested on: Candida albicans; assay: In vivo antifungal activity against Candida albicans ATCC SC5314 infected in BALB/c mouse assessed as decrease in number of exogenous fungal cells at 10 ug, ip for 14 days in presence of Biphenyl isopropyl ester by H and E staining based microscopy; type: functional, organism-based; settings: dose 10.0 µg, time 14.0 day
[8] = tested on: Candida albicans; assay: In vivo antifungal activity against Candida albicans ATCC SC5314 infected in BALB/c mouse assessed as shrinkage in infected region at 10 ug, ip for 14 days in presence of Biphenyl isopropyl ester; type: functional, organism-based; settings: dose 10.0 µg, time 14.0 day
[9] = tested on: Candida albicans; assay: In vivo antifungal activity against Candida albicans ATCC SC5314 infected in BALB/c mouse assessed as decrease in IL-2 expression level at 10 ug, ip for 14 days in presence of Biphenyl isopropyl ester by immunohistochemical analysis; type: functional, organism-based; settings: dose 10.0 µg, time 14.0 day
[10] = Toxicity in BALB/c mouse infected with Candida albicans ATCC SC5314 assessed as plasma ALT level at 10 ug, ip for 14 days in presence of Biphenyl isopropyl ester; type: organism-based; settings: in vivo, 336 h, dose 10 µg, time 14 day
[11] = tested on: Candida albicans; assay: In vivo antifungal activity against Candida albicans ATCC SC5314 infected in BALB/c mouse assessed as decrease in NLRP3 expression level at 10 ug, ip for 14 days in presence of Biphenyl isopropyl ester by Western blot analysis; type: functional, organism-based; settings: dose 10.0 µg, time 14.0 day
[12] = Toxicity in BALB/c mouse infected with Candida albicans ATCC SC5314 assessed as morphological changes in kidney at 10 ug, ip for 14 days in presence of Biphenyl isopropyl ester by H and E staining based microscopy; type: organism-based; settings: in vivo, 336 h, dose 10 µg, time 14 day
[13] = tested on: Candida albicans; assay: In vivo antifungal activity against Candida albicans ATCC SC5314 infected in BALB/c mouse assessed as decrease in PD-L1 expression level at 10 ug, ip for 14 days in presence of Biphenyl isopropyl ester by Western blot analysis; type: functional, organism-based; settings: dose 10.0 µg, time 14.0 day
[14] = Toxicity in BALB/c mouse infected with Candida albicans ATCC SC5314 assessed as morphological changes in spleen at 10 ug, ip for 14 days in presence of Biphenyl isopropyl ester by H and E staining based microscopy; type: organism-based; settings: in vivo, 336 h, dose 10 µg, time 14 day
[15] = tested on: Candida albicans; assay: In vivo antifungal activity against Candida albicans ATCC SC5314 infected in BALB/c mouse assessed as fold increase in CD8+ expression level in T cells at 10 ug, ip for 14 days in presence of Biphenyl isopropyl ester by immunohistochemical analysis; type: functional, T-cell; settings: dose 10 µg, time 14 day
[16] = tested on: Candida albicans; assay: In vivo antifungal activity against Candida albicans ATCC SC5314 infected in BALB/c mouse assessed as reversal of cell morphology to normal state at 10 ug, ip for 14 days in presence of Biphenyl isopropyl ester by GMS staining based microscopy; type: functional, organism-based; settings: dose 10.0 µg, time 14.0 day
[17] = tested on: Cell membrane; assay: Induction of cell membrane integrity disruption in Candida albicans ATCC SC5314 assessed as cell destruction at 1 microM/ml incubated for 96 hrs by TEM analysis; type: subcellular
[18] = tested on: Cell membrane; assay: Induction of cell membrane integrity disruption in Candida albicans ATCC SC5314 assessed as decrease in cell wall thickness at 1 microM/ml incubated for 48 to 72 hrs by TEM analysis; type: subcellular; settings: time 48-72 hrs
[19] = tested on: Cell membrane; assay: Induction of cell membrane integrity disruption in Candida albicans ATCC SC5314 assessed as decrease in cell membrane thickness at 1 microM/ml incubated for 48 to 72 hrs by TEM analysis; type: subcellular; settings: time 48-72 hrs
[20] = tested on: Cell membrane; assay: Induction of cell membrane integrity disruption in Candida albicans ATCC SC5314 assessed as disappearance of nuclei at 1 microM/ml incubated for 48 to 72 hrs by TEM analysis; type: subcellular; settings: time 48-72 hrs
[21] = tested on: Cell membrane; assay: Induction of cell membrane integrity disruption in Candida albicans ATCC SC5314 assessed as edema vacuoles at 1 microM/ml incubated for 48 to 72 hrs by TEM analysis; type: subcellular; settings: time 48-72 hrs

Q: Which results are given for `OC(Cn1cncn1)(Cn1cncn1)c1ccc(F)cc1F` [FLUCONAZOLE]?
A: Activity [1]: Active; Activity [2]: 71.9 IU/L; Activity [3]: Active; Activity [4]: 22.8 nmol/L; Activity [5]: Active; Activity [6]: Non-Toxic; Activity [7]: Active; Activity [8]: Active; Activity [9]: Active; Activity [10]: 37.2 IU/L; Activity [11]: Active; Activity [12]: Non-Toxic; Activity [13]: Active; Activity [14]: Non-Toxic; fold change (FC) [15]: 1.46; Activity [16]: Active

Q: What does the source list for `CC(=O)c1ccc(C(=O)N2CCC(NC(=O)c3nc(-n4cncn4)c4ccccc4n3)CC2)cc1`?
A: Activity [17]: Active; Activity [18]: Active; Activity [19]: Active; Activity [20]: Active; Activity [21]: Active
